The results in this text go back to patent US20120101083A1, “S1P1 AGONISTS COMPRISING A BICYCLIC N-CONTAINING RING” (GLAXO GROUP LIMITED, priority 2009, published 2012).

Counter-ions that a name gives are not always drawn.

For experiment [1], the target named is T1, S1P1 receptor (S1P1 expressing RH7777 membranes) (Homo sapiens, UniProt P21453).
T1 construct: expressed in transfected cells; host or cells: RH7777 cells (membranes)
The experiment can be described thus: S1P1 GTPγS assay. In kind it is biochemical. Conditions: tested in one of the above S1P1 assays (two GTPγS formats). The method, boiled down: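 Membranes from RH7777 cells expressing human S1P1 (1.5 μg/well) precoupled 30 min on ice to WGA SPA beads in 20 mM HEPES pH 7.4, 10 mM MgCl2, 100 mM NaCl, with 10 μM GDP and 90 μg/ml saponin. [35S]-GTPγS 0.5 nM final added with compound; SPA signal read immediately.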

The target of experiment [2] is T2, S1P1 (PathHunter CHO-K1 EDG1 β-Arrestin cell line) (Homo sapiens, UniProt P21453).
T2 construct: host or cells: PathHunter CHO-K1 EDG1 β-Arrestin cell line
The experiment can be described thus: S1P-1 β-Arrestin recruitment assay. In kind it is cell-based. The conditions noted are these: CHO-K1 EDG1 β-Arrestin cells, chemi-luminescence. The method, boiled down:
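CHO-K1 cells expressing S1P1 and β-arrestin 2 fused to complementing β-galactosidase fragments, at 1×10^4 cells/well in pH 7.4 buffer with 0.1% BSA. Compound exposure 90 min at 37 °C then 15 min room temperature; chemiluminescent substrate added for 60 min before luminescence read.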

T1 sequence (P21453 whole entry): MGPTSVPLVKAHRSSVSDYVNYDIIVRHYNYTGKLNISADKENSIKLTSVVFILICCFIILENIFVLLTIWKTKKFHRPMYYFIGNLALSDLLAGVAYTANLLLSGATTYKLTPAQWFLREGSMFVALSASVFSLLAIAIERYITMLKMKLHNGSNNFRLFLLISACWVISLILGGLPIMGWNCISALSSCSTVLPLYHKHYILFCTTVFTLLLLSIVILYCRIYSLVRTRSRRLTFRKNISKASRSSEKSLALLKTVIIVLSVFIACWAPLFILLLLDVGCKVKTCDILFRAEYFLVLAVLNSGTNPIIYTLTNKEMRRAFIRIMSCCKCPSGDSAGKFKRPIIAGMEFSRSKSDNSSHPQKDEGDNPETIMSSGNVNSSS
T2 sequence (P21453 whole entry): as above
T2 sequence (P32121 whole entry partner): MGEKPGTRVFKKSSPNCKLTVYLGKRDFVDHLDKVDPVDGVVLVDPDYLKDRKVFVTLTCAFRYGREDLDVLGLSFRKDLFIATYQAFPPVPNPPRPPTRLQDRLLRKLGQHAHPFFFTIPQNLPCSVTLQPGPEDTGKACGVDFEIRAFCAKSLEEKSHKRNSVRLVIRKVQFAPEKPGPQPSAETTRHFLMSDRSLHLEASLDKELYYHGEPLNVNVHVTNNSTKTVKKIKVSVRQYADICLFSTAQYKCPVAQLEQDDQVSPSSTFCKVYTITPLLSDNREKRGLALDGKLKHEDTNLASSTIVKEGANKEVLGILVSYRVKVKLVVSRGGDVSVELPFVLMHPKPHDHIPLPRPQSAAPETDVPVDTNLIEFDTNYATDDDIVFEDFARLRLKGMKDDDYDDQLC

Consider `Cc1c(-c2noc(-c3ccc(OC(C)C)c(C#N)c3)n2)ccc2c1CCN(CCC(N)=O)C2` [Example 1, 3-[6-(5-{3-Cyano-4-[(1-methylethyl)oxy]phenyl}-1,2,4-oxadiazol-3-yl)-5-methyl-3,4-dihydro-2(1H)-isoquinolinyl]propanamide], for which the results for the EC50 in experiment [1] and in experiment [2] were no more than 100 nM and no more than 10 nM, respectively.
The matching figures for `CC(C)Oc1ccc(-c2nc(-c3ccc4c(c3)CCN(CC(=O)NC(CO)CO)CC4)no2)cc1C#N` [Example 195, 2-[7-(5-{3-cyano-4-[(1-methylethyl)oxy]phenyl}-1,2,4-oxadiazol-3-yl)-1,2,4,5-tetrahydro-3H-3-benzazepin-3-yl]-N-[2-hydroxy-1-(hydroxymethyl)ethyl]acetamide hydrochloride]: no more than 100 nM and no more than 10 nM.
In the case of `Cc1c(-c2noc(-c3ccc(OC(C)C)c(C#N)c3)n2)ccc2c1CCN(CC(=O)N1CC(O)C1)C2` [Example 123, 5-(3-{2-[2-(3-hydroxy-1-azetidinyl)-2-oxoethyl]-5-methyl-1,2,3,4-tetrahydro-6-isoquinolinyl}-1,2,4-oxadiazol-5-yl)-2-[(1-methylethyl)oxy]benzonitrile hydrochloride], the EC50 in experiment [1] is no more than 100 nM; in experiment [2], no more than 10 nM.
On to `Cc1c(-c2noc(-c3ccc(OC(C)C)c(C#N)c3)n2)ccc2c1CCN(C(=O)CN)C2` [Example 42, 5-[3-(2-Glycyl-5-methyl-1,2,3,4-tetrahydro-6-isoquinolinyl)-1,2,4-oxadiazol-5-yl]-2-[(1-methylethyl)oxy]benzonitrile hydrochloride], for which the EC50 in experiment [1] is no more than 100 nM; in experiment [2] it was no more than 10 nM.
On to `Cc1c(-c2noc(-c3ccc(OC(C)C)c(C#N)c3)n2)ccc2c1CCN(C(=O)CNC[C@@H](C)O)C2` [Example 129, 5-[3-(2-{N-[(2R)-2-hydroxypropyl]glycyl}-5-methyl-1,2,3,4-tetrahydro-6-isoquinolinyl)-1,2,4-oxadiazol-5-yl]-2-[(1-methylethyl)oxy]benzonitrile hydrochloride], for which the EC50 in experiment [1] was greater than 10000 nM; in experiment [2], no more than 10 nM.
For the molecule `CCOc1ccc(-c2nc(-c3ccc4c(c3)CCN(CC(O)CO)CC4)no2)cc1C#N` (stereo not shown) [Example 70, 5-{3-[3-(2,3-dihydroxypropyl)-2,3,4,5-tetrahydro-1H-3-benzazepin-7-yl]-1,2,4-oxadiazol-5-yl}-2-(ethyloxy)benzonitrile], the EC50 in experiment [1] and in experiment [2] was no more than 100 nM in each case.
As to `CC(C)Oc1ccc(-c2nc(-c3ccc4c(c3)CCN(C(=O)[C@@](C)(N)CO)CC4)no2)cc1C#N` [Example 81, 2-[(1-methylethyl)oxy]-5-{3-[3-(2-methyl-L-seryl)-2,3,4,5-tetrahydro-1H-3-benzazepin-7-yl]-1,2,4-oxadiazol-5-yl}benzonitrile], the EC50 in experiment [1] and in experiment [2] was no more than 100 nM in each case.
`Cc1c(-c2noc(-c3cnc(OC(C)C)c(C#N)c3)n2)ccc2c1CCN(C[C@@H](O)CO)C2` [Example 133]: the EC50 in experiment [1] and in experiment [2] was no more than 100 nM in each case.
For `Cc1c(-c2nnc(-c3ccc(OC(C)C)c(C#N)c3)s2)ccc2c1CCN(CCC(N)=O)C2` [Example 10, 3-[6-(5-{3-Cyano-4-[(1-methylethyl)oxy]phenyl}-1,3,4-thiadiazol-2-yl)-5-methyl-3,4-dihydro-2(1H)-isoquinolinyl]propanamide], the EC50 in experiment [1] is no more than 100 nM; in experiment [2], no more than 10 nM.
As for `Cc1c(-c2noc(-c3ccc(OC(C)C)c(C#N)c3)n2)ccc2c1CCN(CC(N)=O)C2` [Example 3, 2-[6-(5-{3-Cyano-4-[(1-methylethyl)oxy]phenyl}-1,2,4-oxadiazol-3-yl)-5-methyl-3,4-dihydro-2(1H)-isoquinolinyl]acetamide], the EC50 in experiment [1] was no more than 100 nM; in experiment [2], no more than 10 nM.
In the same order, the values of `CC(C)Nc1ncc(-c2nc(-c3ccc4c(c3)CCN(C(=O)CN)CC4)no2)cc1C#N` [Example 112, 5-[3-(3-glycyl-2,3,4,5-tetrahydro-1H-3-benzazepin-7-yl)-1,2,4-oxadiazol-5-yl]-2-[(1-methylethyl)amino]-3-pyridinecarbonitrile] are no more than 1000 nM and no more than 100 nM.
As to `Cc1c(-c2noc(-c3ccc(OC(C)C)c(C#N)c3)n2)ccc2c1CCN(C[C@@H](O)CO)C2` [Example 73, 5-(3-{2-[(2R)-2,3-dihydroxypropyl]-5-methyl-1,2,3,4-tetrahydro-6-isoquinolinyl}-1,2,4-oxadiazol-5-yl)-2-[(1-methylethyl)oxy]benzonitrile hydrochloride], the figures for the EC50 in experiment [1] and in experiment [2] were no more than 100 nM and no more than 10 nM, respectively.
The matching figures for `CC(C)Oc1ncc(-c2nc(-c3ccc4c(c3)CCN(C(=O)[C@@H](N)[C@@H](C)O)CC4)no2)cc1C#N` [Example 77, 2-[(1-methylethyl)oxy]-5-[3-(3-L-threonyl-2,3,4,5-tetrahydro-1H-3-benzazepin-7-yl)-1,2,4-oxadiazol-5-yl]-3-pyridinecarbonitrile hydrochloride]: no more than 1000 nM and no more than 100 nM.
The matching figures for `CC(C)Oc1ccc(-c2nc(-c3ccc4c(c3)CCN(CC(=O)N[C@H](C)CO)CC4)no2)cc1C#N` [Example 78, 2-[7-(5-{3-cyano-4-[(1-methylethyl)oxy]phenyl}-1,2,4-oxadiazol-3-yl)-1,2,4,5-tetrahydro-3H-3-benzazepin-3-yl]-N-(1R)-2-hydroxy-1-methylethyl]acetamide hydrochloride]: no more than 1000 nM and no more than 100 nM.
With `CNCCC(=O)N1CCc2c(ccc(-c3noc(-c4ccc(OC(C)C)c(C#N)c4)n3)c2C)C1` [Example 40, 2-[(1-methylethyl)oxy]-5-{3-[5-methyl-2-(N-methyl-b-alanyl)-1,2,3,4-tetrahydro-6-isoquinolinyl]-1,2,4-oxadiazol-5-yl}benzonitrile hydrochloride], the values for the EC50 in experiment [1] and in experiment [2] were no more than 100 nM and no more than 10 nM, respectively.
With `Cc1c(-c2noc(-c3ccc(OC(C)C)c(C#N)c3)n2)ccc2c1CCN(CC(=O)NC(CO)CO)CC2` [Example 186, 2-[7-(5-{3-cyano-4-[(1-methylethyl)oxy]phenyl}-1,2,4-oxadiazol-3-yl)-6-methyl-1,2,4,5-tetrahydro-3H-3-benzazepin-3-yl]-N-[2-hydroxy-1-(hydroxymethyl)ethyl]acetamide], the EC50 in experiment [1] is no more than 100 nM; in experiment [2], no more than 10 nM.
The matching figures for `Cc1c(-c2noc(-c3ccc(OC(C)C)c(C#N)c3)n2)ccc2c1CCN(CC(=O)NCCO)CC2` [Example 146, 2-[7-(5-{3-cyano-4-[(1-methylethyl)oxy]phenyl}-1,2,4-oxadiazol-3-yl)-6-methyl-1,2,4,5-tetrahydro-3H-3-benzazepin-3-yl]-N-(2-hydroxyethyl)acetamide]: no more than 100 nM and no more than 10 nM.
In the same order, the values of `Cc1c(-c2noc(-c3ccc(OC(C)C)c(C#N)c3)n2)ccc2c1CCN(CC(=O)NC[C@@H](C)O)CC2` [Example 147, 2-[7-(5-{3-cyano-4-[(1-methylethyl)oxy]phenyl}-1,2,4-oxadiazol-3-yl)-6-methyl-1,2,4,5-tetrahydro-3H-3-benzazepin-3-yl]-N-[(2R)-2-hydroxypropyl]acetamide] are no more than 100 nM and no more than 10 nM.
On to `CC(C)Oc1ccc(-c2nc(-c3ccc4c(c3)CCN(CC(=O)N[C@@H](C)CO)CC4)no2)cc1C#N` [Example 80, 2-[7-(5-{3-cyano-4-[(1-methylethyl)oxy]phenyl}-1,2,4-oxadiazol-3-yl)-1,2,4,5-tetrahydro-3H-3-benzazepin-3-yl]-N-[(1S)-2-hydroxy-1-methylethyl]acetamide hydrochloride], for which the EC50 in experiment [1] was no more than 100 nM; in experiment [2], no more than 10 nM.
Take `Cc1c(-c2noc(-c3ccc(OC(C)C)c(C#N)c3)n2)ccc2c1CCN(C(=O)[C@H](N)[C@@H](C)O)C2` [Example 56, 5-[3-(2-D-allothreonyl-5-methyl-1,2,3,4-tetrahydro-6-isoquinolinyl)-1,2,4-oxadiazol-5-yl]-2-[(1-methylethyl)oxy]benzonitrile]: the EC50 in experiment [1] and in experiment [2] was no more than 100 nM throughout.
Take `CC(C)Oc1ccc(-c2nc(-c3ccc4c(c3)CCN(CC(=O)NCCO)CC4)no2)cc1C#N` [Example 111, 2-[7-(5-{3-cyano-4-[(1-methylethyl)oxy]phenyl}-1,2,4-oxadiazol-3-yl)-1,2,4,5-tetrahydro-3H-3-benzazepin-3-yl]-N-(2-hydroxyethyl)acetamide hydrochloride]: the EC50 was no more than 100 nM in experiment [1] and no more than 10 nM in experiment [2].
The matching figures for `CC(C)Oc1ccc(-c2nc(-c3ccc4c(c3)CCN(C(=O)CN3CC(O)C3)CC4)no2)cc1C#N` [Example 106, 5-(3-{3-[(3-hydroxy-1-azetidinyl)acetyl]-2,3,4,5-tetrahydro-1H-3-benzazepin-7-yl}-1,2,4-oxadiazol-5-yl)-2-[(1-methylethyl)oxy]benzonitrile hydrochloride]: no more than 1000 nM and no more than 100 nM.
The matching figures for `CC(C)Oc1ccc(-c2nc(-c3ccc4c(c3)CCN(C(=O)CN)CC4)no2)cc1C#N` [Example 48, 5-[3-(3-glycyl-2,3,4,5-tetrahydro-1H-3-benzazepin-7-yl)-1,2,4-oxadiazol-5-yl]-2-[(1-methylethyl)oxy]benzonitrile trifluoroacetate]: no more than 10 nM and no more than 10 nM.

Usually EC50 stands for the concentration needed to bring the measured effect to its halfway point.
